# What was measured:
# interleukin 8 = conditions: skin irritated by phorbol 12-myristate 13-acetate (PMA); cited from earlier work
# [1] = system: malonic dialdehyde (MDA) production in living human skin explants; experiment: Ex-vivo study on living human skin explants: MDA investigation of the culture medium (TBAR, spectrofluorimetry); type: cell-based; conditions: for MDA concentration in the culture medium of the explant treated with substance and the irritant (average) / MDA concentration in the culture medium of the explant treated without irritant, but with substance (average): 0.5% solution in ethanol (gel D as such), day 4; for MDA concentration in the culture medium of the explant treated with substance and the irritant (average): 2 mg/cm^2 once daily D0-D3, irritant (metals/heavy metals + 0.1% diesel particles PM2.5) 24 h, irritant only 143.6, untreated 98.3; for Average MDA concentration in the presence of substance attributable to the irritant alone: difference with irritant minus without irritant, irritant alone without substance 45.3; for Lower MDA production (change) versus irritant only: explants with substance and irritant, compared with explant treated only with irritant; for MDA concentration in the culture medium of the explant treated without irritant, but with substance (average): no irritant, once daily D0-D3, untreated 98.3; for Hindrance of MDA production standardised to the amount of MDA released only by the irritant: standardised to MDA attributable to irritant alone (45.3 nmol/l)
# Description: (§1) An ex-vivo study was carried out on skin explants from a person […] (P1922-AB54). The explants are kept in a functioning state in a BEM culture medium (explants medium from BIO-EC) at 37° C. in a moist atmosphere containing 5% of CO2. 4 explants are used in each case in an experimental series of a substance, the control or the reference.
# (§2) Compounds A and B to be investigated are employed in 0.5% solution in ethanol. The influence of ethanol on the explant is investigated in parallel (compound C=ethanol). The reference employed is the gel from DECLÉOR with the article number 56300 (gel D; decléor gelée hydratante anti-pollution), which is known for its protection of the skin against chemicals, heavy metals and diesel particles. The control used is an untreated sample which only comes into contact with the culture medium.
# (§3) The explants are treated once daily for 4 days (day 0=D0, day 1=D1, day 2=D2 and day 3=D3) with the solutions to be tested containing compound A and B as well as compound C and gel D (2 μl per explant corresponding to 2 mg/cm^2). On D3, the solutions to be tested and the reference are treated 4 hours before application of the irritant.
# (§4) On D3, the explants are treated with the irritant containing the metals/heavy metals and diesel particles, as described above, where a paper disc with a diameter of 9 mm is soaked with 30 μl of the irritant. The irritant acts on the respective explant for 24 hours.
# The culture medium of the treated explants is investigated for the compound MDA. MDA stands for malonic dialdehyde (propanedial) and is a known marker for oxidative stress, as described above.
# The culture medium of each investigated explant is mixed with a salt medium (HBBS Medium Hank's Balanced Salts) and a TBAR solution and heated in a water bath at 80° C. for 15 minutes. The TBAR solution contains thiobarbituric acid, hydrochloric acid and trichloroacetic acid. Many substances which are unrelated to the lipoperoxidation react with the thiobarbituric acid, for example glucose. After cooling, malonic dialdehyde (MDA) is extracted with butanol in a liquid/liquid extraction, and the then investigated by spectrofluorimetry (excitation 515 nm, emission: 550 nm). The MDA concentration indicated below is quoted in nmol/l.
# 1. For interpretation of the results, it is taken into account that the culture medium of the untreated explants (without irritant and without compounds A, B, C and gel D) also contains MDA on day 4.
# For analysis of the results, this amount of MDA present on average in the untreated explants is therefore subtracted from the values obtained for the explant samples in order to determine the influence of MDA production owing to the irritant.
# [2] = system: epidermis of living human skin explants; experiment: Ex-vivo study on living human skin explants: histological investigation (Masson's trichrome staining); type: cell-based; conditions: for Epidermal morphological change compared with the untreated sample: explants treated with substance and the irritant, day 4, Masson staining
# Description: as §1, §2, §3, §4
# On day 4 (D4), three explants are collected for each of the compounds to be investigated. Each explant is divided, and one part is frozen at −80° C., the second half is fixed in a buffered formol solution (formaldehyde solution). The fourth explant remains frozen at −80° C.
# The explants fixed for 24 hours are dehydrogenated and impregnated in paraffin. Areas with a thickness of 5 μm are then cut and investigated under the microscope (for example Leica DMLB or Olympus BX43). Corresponding images are produced, using the Masson staining method (Masson's trichrome staining, Goldner variant), a standard colouring method in histology. […]
SMILES,"Excretion of cytokines, in particular interleukin 8 (interleukin 8)",MDA concentration in the culture medium of the explant treated with substance and the irritant (average) [1] [nmol/L],Average MDA concentration in the presence of substance attributable to the irritant alone [1] [nmol/L],Lower MDA production (change) versus irritant only [1] [%],"MDA concentration in the culture medium of the explant treated without irritant, but with substance (average) [1] [nmol/L]",Hindrance of MDA production standardised to the amount of MDA released only by the irritant [1] [%],Epidermal morphological change compared with the untreated sample [2],"Worsening of the condition of the epidermis (score of detectable changes) ([2]; explants with substance and irritant, compared with untreated control and with compound A plus irritant)"
"COc1cc(C=C(C(=O)OC(C)C)C(=O)OC(C)C)ccc1O [compound B, diisopropyl 3-methoxy-4-hydroxybenzylidenemalonate]",reduces the excretion of cytokines,135.5,41.9,6,93.6,8,an epidermal morphological change,about 55%
"CCCCC(CC)COC(=O)C(=Cc1cc(OC)c(O)c(OC)c1)C(=O)OCC(CC)CCCC (centres unmarked) [compound A, di(2-ethylhexyl) 3,5-dimethoxy-4-hydroxybenzylidenemalonate]",,129.0,34.3,10,94.7,24,no epidermal change,

# Reference: US20210161783A1, “USE OF SPECIFIC BENZYLIDENE MALONATES FOR PROTECTING THE SKIN FROM CHEMICALLY INDUCED STRESS” (MERCK PATENT GMBH, priority 2018, published 2021)
